The values below come from patent EP4628074A1, “N-PALMITOYLETHANOLAMIDE FOR USE IN COMBINATION WITH A NON-STEROIDAL ANTI-INFLAMMATORY DRUG IN THE TREATMENT OF INFLAMMATORY PAIN” (priority 2024, dated 2025).

For this assay, the system named is inflammatory pain induced by CFA. The experiment in a line: Incapacitance test (spontaneous pain), CFA-induced inflammatory pain, chronic (14 days) oral treatment (Experiment 4). The format is in vivo, male Sprague-Dawley rats. The following applies: 2x2 ANOVA on percentage inhibition of spontaneous pain, interaction line = synergy. As for the experimental part:
The inflammatory pain model was induced by injecting Complete Freund's Adjuvant (CFA, Sigma-Aldrich) into the tibiotarsal joint of male Sprague-Dawley rats (Charles River), housed in 26x41 cm cages at the Animal Husbandry Centre. Laboratory Animals (Ce.S.A.L.) of the University of Florence with a 12-hour circadian cycle, water and food (standard diet) "ad libitum", temperature of 23±1°C. Intra-articular injection occurred according to the method described by Butler et al. (Pain 48:73-81,1992) after light anesthesia with 2% isoflurane. The skin surrounding the injection site was sterilized with 75% ethyl alcohol. Then a 28-gauge needle was inserted into the joint cavity, through which a volume of 50 µl of CFA was injected. The animals were then divided into the following treatment groups (N = 8): • Sham (control, a volume of physiological solution equal to that used for CFA animals was injected into the tibiotarsal joint) • Vehicle (CMC 1%) • Diclofenac (3 mg/kg) • Diclofenac (30 mg/kg) • PEA (10 mg/kg) • PEA-OXA (10 mg/kg) [formula] [formula] [formula] [formula]
The tested molecules - used both individually and in combination - were suspended in 1% CMC and administered orally daily from day 1 to day 14 (chronic treatment). […] Behavioral tests were conducted 24 hours after the last administration, in order to highlight the effect of repeated treatment on joint pain. Inflammatory pain induced by CFA injection was measured by paw pressure test. […] The nociceptive threshold has been expressed as the force to which the animal reacts by retracting its paw or vocalizing (Leighton et al., Br J Pharmacol 93:553-560,1988). An analgesimeter (Ugo Basile, Varese) was used for this purpose, which allows the mechanical hyperalgesia to be quantified. Furthermore, spontaneous pain was assessed using the incapacitance test, which evaluates variations in postural balance through the "Incapacitance" device (Linton Instrumentation, UK), a scale which simultaneously, but separately, measures the force imparted by each paw (Fernandes et al., Arthritis Res Ther. 2016 Jan 11;18:7).
Briefly, rats were trained to stand on their hind legs in a box with an inclined plane (65° to the horizontal), placed above the "Incapacity" apparatus. […] The results were expressed in terms of "painful potency", defined as percentage inhibition (mean ± SEM) of inflammatory pain induced by CFA and calculated according to the formula: 100* (treatm-VEIC)/(CTRL-VEIC)."
The effect on pain was analyzed using Generalized Linear Model (GLM) followed by post-hoc analysis based on Tukey-Kramer correction for multiple comparisons. The results of the analyses were expressed as mean ± standard error of the mean (SEM). […]

For the compound `CCCCCCCCCCCCCCCC(=O)NCCO` [PEA, N-palmitoylethanolamide], the “Pr > F” value is, setting by setting: (PEA 5 mg/kg + diclofenac 3 mg/kg compared with diclofenac 3 mg/kg and PEA 10 mg/kg alone) <0,0001; (PEA 10 mg/kg, diclofenac 3 mg/kg) 0,0084.
